The results in this text go back to US12391646B2, “Using adiponectin receptor agonists to treat inflammation and bone diseases in diabetes” (Trustees of Tufts College, priority 2020, dated 2025).

Assay [1] deals with RAW 264.7 cells (osteoclast differentiation). Briefly: RANKL-induced osteoclast differentiation of RAW 264.7 cells. The settings on record: for number of osteoclast-like cells (TRAP staining): co-culture with RANKL 6 days, AdipoRon 20 μM, AdipoAI 5 μM. The format is cell-based. The method, then:
(§1) RAW 264.7 cells (ATCC, Manassas, VA, USA) were cultured and passaged in DMEM supplemented with 10% (v/v) FBS (Invitrogen, Grand Island, NY, USA) and 1% Penicillin-Streptomycin (Gibco, Gaithersburg, MD, USA). For the induction of osteoclastogenesis, RAW 264.7 cells were cultured 24 in α-MEM supplemented with 10% FBS and 1% Penicillin-Streptomycin in the presence of 100 ng/ml RANKL (Peprotech, Rocky Hill, NJ, USA) for 2 days, and subsequently treated or not with AdipoRon or AdipoAI for another 2 days changing cell culture medium every 2 days. After a total of […] of culture, morphologic examination was performed, as was mRNA and protein expression. To simulate high glucose environment in vitro, α-MEM was supplemented with D-glucose to 25 mmol/l (high glucose) or 5 mmol/l (physiological glucose). 20 mmol/l D-mannitol served as an osmotic control.
(§2) Total RNA was isolated from cell cultures and gingival soft tissues using TriZol reagent (Life Technologies, Carlsbad, CA, USA) according to the manufacturer's instructions^24. Reverse transcription was performed using the PrimeScript RT Master Mix (Takara Bio, Otsu, Japan) and real-time-qPCR analyses were performed using SYBR-Green Real-Time PCR Master Mix (Takara Bio, Otsu, Japan) as described earlier^27.

In assay [2] the test system is RAW 264.7 cells in high glucose medium. Briefly: Osteoclastogenesis and autophagy of RANKL-treated RAW 264.7 cells in high glucose medium. Type of assay: cell-based. The settings on record: for RANKL-induced mRNA expression of Cathepsin K and TRAP: high glucose 25 mM, AdipoRon 20 μM; for LC3 mRNA, LC3II protein and LC3 puncta: high glucose medium with RANKL. As for the experimental part: FIG. 20 RAW 264.7 cells were treated with RANKL (100 ng/ml) with or without AdipoRon ([…]) or AdipoAI (5 μM) in low (5 mmol/l) glucose, 20 mmol/l D-mannitol or high (25 mmol/l) glucose medium. qRT-PCR analysis of cathepsin K (A), TRAP (B) and microtubule associated protein 1 light chain 3 (LC3) (C), and mRNA expression were calculated (n≥3). (D) Western blot analysis of LC3A/B protein levels normalized to β-actin. (E) The mean of protein/β-actin ratios normalized to 1.0 (RANKL-AdipoRon-AdipoAI-H group) quantified by densitometry. (F) Autophagosome images obtained with laser confocal microscopy after the RAW 264.7 cells were transfected with a GFP-LC3 plasmid and treated with RANKL and AdipoRon or AdipoAI (scale bar=50 μm). Data are shown as mean±SD. *, P<0.05. **P<0.01. ***P<0.001.
FIG. 21 Autophagy inhibitor reverses AdipoAI-inhibited osteoclastogenesis in high glucose medium. RAW 264.7 cells were treated with RANKL (100 ng/ml) in 2 days and with or without AdipoAI (5 μM) for 24 hours followed by 3-methyladenine (3-MA, 2.5 mM) treatment for another 24 hours in high glucose medium. qRT-PCR analysis of cathepsin K (A), TRAP (B) and LC3 (C) mRNA expression were calculated (n≥3). (D) Western blot analysis of LC3A/B protein levels normalized to β-actin. (E) The mean of protein/β-actin ratios normalized to 1.0 (3-MA-, RANKL-, AdipoAI-group) quantified by densitometry. Data are shown as mean±SD. *, P<0.05. **P<0.01. ***P<0.001.
FIG. 22 AdipoAI-induced autophagy of osteoclasts in high glucose medium via AKT1/mTOR signaling pathway. RAW 264.7 cells were induced with RANKL for 2 days and then treated with or without (5 μM) additional 24 hours after serum starvation for 4 hours. Then, the cells were treated with RANKL, AdipoAI or SC79 (5 μM), an AKT activator, for another 24 hours in high glucose medium. qRT-PCR analysis of mRNA expression of cathepsin K (A), TRAP (B) and LC3 (C) were calculated (n≥3). (D) Representative images show the protein expression levels of AKT, p-AKT, AKT1, p-AKT1, mTOR, p-mTOR, and LC3A/B in osteoclasts. Quantitative analysis of bands is shown in (E-K) (n≥3). Data are shown as mean±SD. *, P<0.05. **P<0.01. ***P<0.001. R: RANKL. A, AI: AdipoAI. SC5: SC79 (5 μM).
as §1, §2
Total cellular extracts were prepared using RIPA Lysis and Extraction Buffer containing three Protease Inhibitors (Santa Cruz, Dallas, TX, USA). Western blot analyses were performed as previously described 24. Antibodies for β-actin (1:2000) and GAPDH (1:5000), LC3A/B (1:1000), AKT1 (1:1000), p-AKT1 (1:1000), AKT (1:1000), p-AKT (1:1000), mTOR (1:1000), p-mTOR (1:1000) were purchased from Abcam and Cell Signaling Technology, respectively. SC79, an AKT activator was purchased from Sigma Aldrich. […]

[3] abbreviates: higher concentration, RANKL 100 ng/ml.
[4] abbreviates: AdipoAI 5 μM, RANKL, high glucose medium.

`O=C(COc1ccc(C(=O)c2ccccc2)cc1)NC1CCN(Cc2ccccc2)CC1` [AdipoRon, reference compound]: the “downregulation of TRAP mRNA expression” value in assay [1] (5 μM, RANKL 100 ng/ml) is on record as “no significant inhibition in TRAP mRNA expression”. For the same molecule, the “number of osteoclast-like cells (TRAP staining)” value in assay [1] is given as “significantly reduced the number of osteoclast-like cells”. In assay [1] (setting [3]), the “inhibition of TRAP mRNA expression” value stood at 64.5% and the “inhibition of cathepsin K mRNA expression” value amounted to 65.1%. In addition, in assay [2] (AdipoAI 5 μM), the “RANKL-induced mRNA expression of Cathepsin K and TRAP” value is given as “decreased the RANKL-induced mRNA expression of osteoclastogenesis markers”. Also, in assay [2], the “LC3 mRNA, LC3II protein and LC3 puncta” value was “increased the mRNA expression of LC3, protein expression of LC3II and LC3 puncta”.
Consider `COc1ccc(CN2CCC(NC(=O)COc3ccc(C(=O)c4ccc(Cl)cc4)cc3)CC2)cc1` [Compound 3], for which, in assay [1] (5 μM, RANKL 100 ng/ml), the “downregulation of TRAP mRNA expression” value came out at 97.0% and the “downregulation of cathepsin K mRNA expression” value came out at 87.5%. Also, the “number of osteoclast-like cells (TRAP staining)” value in assay [1] is “significantly reduced the number of osteoclast-like cells”. Further, in assay [2] (setting [4]), the “expression of AKT” value is listed as “inhibits the expression of AKT”, the “expression of LC3II” value is recorded as “promotes the expression of LC3II”, the “reduction of phosphorylation of AKT” value came out at 21% and the “reduction of phosphorylation of AKT1” value amounted to 40%. For the same molecule, in assay [2] (setting [4]), the “reduction of phosphorylation of mTOR” value was 25%. For the same molecule, the “RANKL-induced mRNA expression of Cathepsin K and TRAP” value in assay [2] (AdipoAI 5 μM) is recorded as “decreased the RANKL-induced mRNA expression of osteoclastogenesis markers”. Further, in assay [2], the “LC3 mRNA, LC3II protein and LC3 puncta” value is “increased the mRNA expression of LC3, protein expression of LC3II and LC3 puncta”.
